Activity calls are given as the source filed them. The rule behind the calls is not given here.
Legend:
[1] = Toxicity in BALB/c mouse xenografted with human NCI-H1975 cells assessed as reduction in body weight 50 to 100 mg/kg, ip administered for 2 weeks and measured after 2 week; format: organism-based; conditions: in vivo, 336 h, dose 50-100 mg/kg
[2] = test system: NCI-H1975; experiment: cells; format: functional; conditions: Homo sapiens, time 48 hrs
[3] = target: Histone deacetylase 3 (Homo sapiens, UniProt O15379)
Histone deacetylase 3, sequence (O15379 whole entry): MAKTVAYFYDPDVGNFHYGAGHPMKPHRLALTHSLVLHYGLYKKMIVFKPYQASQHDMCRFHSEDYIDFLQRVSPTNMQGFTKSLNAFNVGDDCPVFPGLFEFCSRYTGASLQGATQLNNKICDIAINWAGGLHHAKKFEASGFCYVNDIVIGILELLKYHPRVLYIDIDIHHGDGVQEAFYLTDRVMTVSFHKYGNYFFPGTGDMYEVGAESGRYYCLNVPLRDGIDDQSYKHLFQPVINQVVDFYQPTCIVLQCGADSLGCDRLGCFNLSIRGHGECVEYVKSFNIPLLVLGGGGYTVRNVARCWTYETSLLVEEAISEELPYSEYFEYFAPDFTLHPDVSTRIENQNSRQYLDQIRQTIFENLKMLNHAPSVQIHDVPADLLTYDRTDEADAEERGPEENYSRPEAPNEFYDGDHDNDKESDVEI

[4] = target: T1, Protein deacetylase HDAC6 (Homo sapiens) (UniProt Q9UBN7); experiment: Inhibition of HDAC6 in human NCI-H1975 cells assessed as increase in acetylated alpha tubulin level after 24 hrs by Western blot analysis; format: cell-based; conditions: dose 0.1-3 µM
T1 sequence (whole entry): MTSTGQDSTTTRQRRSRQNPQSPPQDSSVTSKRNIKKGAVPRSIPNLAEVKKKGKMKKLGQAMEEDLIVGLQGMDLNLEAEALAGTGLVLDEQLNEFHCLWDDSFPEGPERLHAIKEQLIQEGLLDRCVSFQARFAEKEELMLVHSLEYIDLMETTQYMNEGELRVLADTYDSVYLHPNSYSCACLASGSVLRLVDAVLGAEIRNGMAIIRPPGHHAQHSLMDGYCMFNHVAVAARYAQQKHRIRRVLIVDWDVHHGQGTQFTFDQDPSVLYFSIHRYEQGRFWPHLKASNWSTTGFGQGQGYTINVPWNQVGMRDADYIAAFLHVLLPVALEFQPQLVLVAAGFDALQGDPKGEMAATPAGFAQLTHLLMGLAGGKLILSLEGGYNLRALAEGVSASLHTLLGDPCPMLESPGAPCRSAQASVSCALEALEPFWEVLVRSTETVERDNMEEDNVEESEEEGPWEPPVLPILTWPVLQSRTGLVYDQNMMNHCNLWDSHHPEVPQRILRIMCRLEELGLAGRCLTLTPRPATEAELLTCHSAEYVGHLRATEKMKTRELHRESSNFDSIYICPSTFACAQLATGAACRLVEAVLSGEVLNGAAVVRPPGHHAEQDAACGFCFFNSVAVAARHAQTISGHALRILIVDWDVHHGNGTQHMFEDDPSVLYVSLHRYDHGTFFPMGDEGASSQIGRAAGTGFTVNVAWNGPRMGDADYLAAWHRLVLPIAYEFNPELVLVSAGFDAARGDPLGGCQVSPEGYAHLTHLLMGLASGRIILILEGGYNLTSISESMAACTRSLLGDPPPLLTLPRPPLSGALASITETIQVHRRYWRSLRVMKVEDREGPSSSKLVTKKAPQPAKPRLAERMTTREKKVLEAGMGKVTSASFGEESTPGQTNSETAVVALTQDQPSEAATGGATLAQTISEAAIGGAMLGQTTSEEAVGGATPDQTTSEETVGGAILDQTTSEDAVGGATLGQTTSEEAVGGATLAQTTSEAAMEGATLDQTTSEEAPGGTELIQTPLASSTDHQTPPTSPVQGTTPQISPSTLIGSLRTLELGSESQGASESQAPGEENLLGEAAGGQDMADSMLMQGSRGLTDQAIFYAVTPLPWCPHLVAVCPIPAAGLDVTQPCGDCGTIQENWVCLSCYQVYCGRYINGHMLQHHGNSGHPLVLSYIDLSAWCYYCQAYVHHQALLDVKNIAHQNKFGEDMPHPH

[5] = target: Heat shock protein HSP90 (Homo sapiens) (UniProt P07900+P08238); experiment: Inhibition of HSP90 in human NCI-H1975 cells assessed as downregulation of Akt expression at 0.03 to 0.3 uM measured upto 24 hrs by Western blot analysis; format: cell-based; conditions: dose 0.03-0.3 µM, time hrs <=24
[6] = test system: NCI-H1975; experiment: Induction of apoptosis in human NCI-H1975 cells assessed as increase in caspase 3 activation incubated for 48 hrs by PI staining based Western blot analysis; format: functional, cell-based; conditions: dose 0.1-3 µM
[7] = test system: NCI-H1975; experiment: Induction of apoptosis in human NCI-H1975 cells assessed as increase in caspase 9 activation incubated for 48 hrs by PI staining based Western blot analysis; format: functional, cell-based; conditions: dose 0.1-3 µM
[8] = test system: NCI-H1975; experiment: Induction of apoptosis in human NCI-H1975 cells assessed as increase in PARP activation incubated for 48 hrs by PI staining based Western blot analysis; format: functional, cell-based; conditions: dose 0.1-3 µM
[9] = test system: NCI-H1975; experiment: Antitumor activity against human NCI-H1975 cells xenografted in BALB/c mouse assessed as reduction in tumor growth at 50 mg/kg, ip administered for 2 weeks and measured after 2 week relative to control; format: functional; conditions: 336 h, read-out: TGI
[10] = test system: NCI-H1975; experiment: Antitumor activity against human NCI-H1975 cells xenografted in BALB/c mouse assessed as reduction in tumor growth at 100 mg/kg, ip administered for 2 weeks and measured after 2 week relative to control; format: functional; conditions: 336 h, read-out: TGI

GI50 [2]: 520 nM
IC50 [3]: 1310 nM
inhibition [4]: Dose-dependent effect
inhibition [5]: Active
Compound: CC(C)c1cc(C(=O)N2Cc3ccc(NC(=O)CCCCCCCCC(=O)NO)cc3C2)c(O)cc1O
Activity [1]: Non-Toxic
Activity [6]: Dose-dependent effect
Activity [7]: Dose-dependent effect
Activity [8]: Dose-dependent effect
inhibition in vivo at 50 mg/kg [9]: 44.8%
inhibition in vivo at 100 mg/kg [10]: 69.7%

Source: ChEMBL document CHEMBL4680193, “Isoindoline scaffold-based dual inhibitors of HDAC6 and HSP90 suppressing the growth of lung cancer in vitro and in vivo” (Eur J Med Chem, 2020)
